These molecules were tested on HT29 human colorectal adenocarcinoma cell line (assay: cell proliferation assay (Cell Titer-Glo luminescent cell viability assay)). Settings: HT-29, 72 h, read-out: pIC50 (converted).
Assay type: cell-based
Procedure: The cell culture and proliferation assay may be carried out as follows: the HT29 human colorectal adenocarcinoma cell line (ATCC, USA) was maintained in Dulbecco's Modified Eagle's Medium (Invitrogen, USA) supplemented with 10% fetal bovine serum (JRH, USA). The cell proliferation assay was carried out with the Cell Titer-Glo luminescent cell viability assay (Promega, USA) according to the manufacture's instruction after the 72 hr treatment of the cells in the presence of the compounds. The cell viability was shown as a percentage of DMSO treated cells.
In the case of COc1cc(C(=O)O)ccc1Nc1ncc2c(n1)N(C1CCCC1)CC(C)(C)C(=O)N2C [Compound 85, 4-(9-Cyclopentyl-5,7,7-trimethyl-6-oxo-6,7,8,9-tetrahydro-5H-pyrimido[4,5-b][1,4]diazepin-2-ylamino)-3-methoxybenzoic Acid], the IC50 is reported as 0.00316 to 0.01 µM. Molecule COc1cc(C(=O)NC2CCN(C)CC2)ccc1Nc1ncc2c(n1)N(C1CCCC1)CC(C)(C)C(=O)N2C [Compound 86, 4-(9-cyclopentyl-5,7,7-trimethyl-6-oxo-6,7,8,9-tetrahydro-5H-pyrimido[4,5-b][1,4]diazepin-2-ylamino)-3-methoxy-N-(1-methylpiperidin-4-yl)benzamide] has an IC50 of 0.00316 to 0.01 µM.

Same assay, conditions: HT-29, cell proliferative assay, HT29 cells, 72 hr treatment, values given as ranges, read-out: pIC50 (converted)
With COc1cc(C(=O)NC2CN(C)C2)ccc1Nc1ncc2c(n1)N(C1CCCC1)CCC(=O)N2C [Compound 47, 4-(9-cyclopentyl-5-methyl-6-oxo-6,7,8,9-tetrahydro-5H-pyrimido[4,5-b][1,4]diazepin-2-ylamino)-3-methoxy-N-(1-methylazetidin-3-yl)benzamide] the IC50 was 0.00316 to 0.01 µM. COc1cc(C(=O)N[C@H]2CCC(=O)NC2)ccc1Nc1ncc2c(n1)N(C1CCCC1)CCC(=O)N2C [Compound 48, (S)-4-(9-cyclopentyl-5-methyl-6-oxo-6,7,8,9-tetrahydro-5H-pyrimido[4,5-b][1,4]diazepin-2-ylamino)-3-methoxy-N-(6-oxopiperidin-3-yl)benzamide] was tested, and the IC50 was over 0.01 µM. COc1cc(C(=O)N[C@@H]2CCCNC2)ccc1Nc1ncc2c(n1)N(C1CCCC1)CCC(=O)N2C [Compound 49, (R)-4-(9-cyclopentyl-5-methyl-6-oxo-6,7,8,9-tetrahydro-5H-pyrimido[4,5-b][1,4]diazepin-2-ylamino)-3-methoxy-N-(piperidin-3-yl)benzamide] showed an IC50 of over 0.01 µM. In the case of COc1cc(C(=O)N[C@H]2CCCNC2)ccc1Nc1ncc2c(n1)N(C1CCCC1)CCC(=O)N2C [Compound 50, (S)-4-(9-cyclopentyl-5-methyl-6-oxo-6,7,8,9-tetrahydro-5H-pyrimido[4,5-b][1,4]diazepin-2-ylamino)-3-methoxy-N-(piperidin-3-yl)benzamide], the IC50 is reported as over 0.01 µM. COc1cc(C(=O)N[C@@H]2CCN(C)C2)ccc1Nc1ncc2c(n1)N(C1CCCC1)CCC(=O)N2C [Compound 51, (R)-4-(9-cyclopentyl-5-methyl-6-oxo-6,7,8,9-tetrahydro-5H-pyrimido[4,5-b][1,4]diazepin-2-ylamino)-3-methoxy-N-(1-methylpyrrolidin-3-yl)benzamide] was tested, and the IC50 was over 0.01 µM. Molecule COc1cc(C(=O)N[C@H]2CCN(C)C2)ccc1Nc1ncc2c(n1)N(C1CCCC1)CCC(=O)N2C [Compound 52, (S)-4-(9-cyclopentyl-5-methyl-6-oxo-6,7,8,9-tetrahydro-5H-pyrimido[4,5-b][1,4]diazepin-2-ylamino)-3-methoxy-N-(1-methylpyrrolidin-3-yl)benzamide] has an IC50 of over 0.01 µM. In the case of COc1cc(C(=O)N[C@@H]2CCCN(C)C2)ccc1Nc1ncc2c(n1)N(C1CCCC1)CCC(=O)N2C [Compound 53, (R)-4-(9-cyclopentyl-5-methyl-6-oxo-6,7,8,9-tetrahydro-5H-pyrimido[4,5-b][1,4]diazepin-2-ylamino)-3-methoxy-N-(1-methylpiperidin-3-yl)benzamide], the IC50 is reported as over 0.01 µM. For COc1cc(C(=O)N[C@H]2CCCN(C)C2)ccc1Nc1ncc2c(n1)N(C1CCCC1)CCC(=O)N2C [Compound 54, (S)-4-(9-cyclopentyl-5-methyl-6-oxo-6,7,8,9-tetrahydro-5H-pyrimido[4,5-b][1,4]diazepin-2-ylamino)-3-methoxy-N-(1-methylpiperidin-3-yl)benzamide], the IC50 was 0.00316 to 0.01 µM. In the case of COc1cc(C(=O)NCCN2CCNCC2)ccc1Nc1ncc2c(n1)N(C1CCCC1)CCC(=O)N2C [Compound 55, 4-(9-cyclopentyl-5-methyl-6-oxo-6,7,8,9-tetrahydro-5H-pyrimido[4,5-b][1,4]diazepin-2-ylamino)-3-methoxy-N-(2-(piperazin-1-yl)ethyl)benzamide], the IC50 is reported as over 0.01 µM. COc1cc(C(=O)NC2CCNCC2)ccc1Nc1ncc2c(n1)N(C1CCCC1)CCC(=O)N2C [Compound 56, 4-(9-cyclopentyl-5-methyl-6-oxo-6,7,8,9-tetrahydro-5H-pyrimido[4,5-b][1,4]diazepin-2-ylamino)-3-methoxy-N-(piperidin-4-yl)benzamide] gave an IC50 of over 0.01 µM. With COc1cc(C(=O)NCCN2CCCC2)ccc1Nc1ncc2c(n1)N(C1CCCC1)CCC(=O)N2C [Compound 57, 4-(9-cyclopentyl-5-methyl-6-oxo-6,7,8,9-tetrahydro-5H-pyrimido[4,5-b][1,4]diazepin-2-ylamino)-3-methoxy-N-(2-(pyrrolidin-1-yl)ethyl)benzamide] the IC50 was over 0.01 µM. CNCCNC(=O)c1ccc(Nc2ncc3c(n2)N(C2CCCC2)CCC(=O)N3C)c(OC)c1 [Compound 59, 4-(9-cyclopentyl-5-methyl-6-oxo-6,7,8,9-tetrahydro-5H-pyrimido[4,5-b][1,4]diazepin-2-ylamino)-3-methoxy-N-(2-(methylamino)ethyl)benzamide] gave an IC50 of over 0.01 µM. COc1cc(C(=O)NCC2CCNCC2)ccc1Nc1ncc2c(n1)N(C1CCCC1)CCC(=O)N2C [Compound 60, 4-(9-cyclopentyl-5-methyl-6-oxo-6,7,8,9-tetrahydro-5H-pyrimido[4,5-b][1,4]diazepin-2-ylamino)-3-methoxy-N-(piperidin-4-ylmethyl)benzamide] was tested, and the IC50 was over 0.01 µM. Work on COc1cc(C(=O)NC[C@@H]2CCCN2)ccc1Nc1ncc2c(n1)N(C1CCCC1)CCC(=O)N2C [Compound 61, (S)-4-(9-cyclopentyl-5-methyl-6-oxo-6,7,8,9-tetrahydro-5H-pyrimido[4,5-b][1,4]diazepin-2-ylamino)-3-methoxy-N-(pyrrolidin-2-ylmethyl)benzamide] yielded an IC50 of over 0.01 µM. With COc1cc(C(=O)NC[C@H]2CCCN2)ccc1Nc1ncc2c(n1)N(C1CCCC1)CCC(=O)N2C [Compound 62, (R)-4-(9-cyclopentyl-5-methyl-6-oxo-6,7,8,9-tetrahydro-5H-pyrimido[4,5-b][1,4]diazepin-2-ylamino)-3-methoxy-N-(pyrrolidin-2-ylmethyl)benzamide] the IC50 was over 0.01 µM. Molecule COc1cc(C(=O)NC[C@@H]2CCCNC2)ccc1Nc1ncc2c(n1)N(C1CCCC1)CCC(=O)N2C [Compound 63, (R)-4-(9-cyclopentyl-5-methyl-6-oxo-6,7,8,9-tetrahydro-5H-pyrimido[4,5-b][1,4]diazepin-2-ylamino)-3-methoxy-N-(piperidin-3-ylmethyl)benzamide] has an IC50 of over 0.01 µM. COc1cc(C(=O)NC[C@H]2CCCNC2)ccc1Nc1ncc2c(n1)N(C1CCCC1)CCC(=O)N2C [Compound 64, (S)-4-(9-cyclopentyl-5-methyl-6-oxo-6,7,8,9-tetrahydro-5H-pyrimido[4,5-b][1,4]diazepin-2-ylamino)-3-methoxy-N-(piperidin-3-ylmethyl)benzamide] gave an IC50 of over 0.01 µM. Molecule COc1cc(C(=O)NCc2ccccn2)ccc1Nc1ncc2c(n1)N(C1CCCC1)CCC(=O)N2C [Compound 69, 4-(9-cyclopentyl-5-methyl-6-oxo-6,7,8,9-tetrahydro-5H-pyrimido[4,5-b][1,4]diazepin-2-ylamino)-3-methoxy-N-(pyridin-2-ylmethyl)benzamide] has an IC50 of 0.00316 to 0.01 µM. With COc1cc(C(=O)NCc2cccnc2)ccc1Nc1ncc2c(n1)N(C1CCCC1)CCC(=O)N2C [Compound 70, 4-(9-cyclopentyl-5-methyl-6-oxo-6,7,8,9-tetrahydro-5H-pyrimido[4,5-b][1,4]diazepin-2-ylamino)-3-methoxy-N-(pyridin-3-ylmethyl)benzamide] the IC50 was 0.00316 to 0.01 µM. For COc1cc(C(=O)NCc2ccncc2)ccc1Nc1ncc2c(n1)N(C1CCCC1)CCC(=O)N2C [Compound 71, 4-(9-cyclopentyl-5-methyl-6-oxo-6,7,8,9-tetrahydro-5H-pyrimido[4,5-b][1,4]diazepin-2-ylamino)-3-methoxy-N-(pyridin-4-ylmethyl)benzamide], the IC50 was 0.00316 to 0.01 µM. In the case of COc1cc(C(=O)NC2CCN(C(=O)C3CC3)CC2)ccc1Nc1ncc2c(n1)N(C1CCCC1)CCC(=O)N2C [Compound 73], the IC50 is reported as over 0.01 µM. COc1cc(C(=O)NCC2CCN(C(=O)C3CC3)CC2)ccc1Nc1ncc2c(n1)N(C1CCCC1)CCC(=O)N2C [Compound 76, 4-(9-cyclopentyl-5-methyl-6-oxo-6,7,8,9-tetrahydro-5H-pyrimido[4,5-b][1,4]diazepin-2-ylamino)-N-((1-(cyclopropanecarbonyl)piperidin-4-yl)methyl)-3-methoxybenzamide] gave an IC50 of over 0.01 µM. Molecule COc1cc(C(=O)NC2CCN(C(C)C)CC2)ccc1Nc1ncc2c(n1)N(C1CCCC1)CCC(=O)N2C [Compound 77, 4-(9-cyclopentyl-5-methyl-6-oxo-6,7,8,9-tetrahydro-5H-pyrimido[4,5-b][1,4]diazepin-2-ylamino)-N-(1-isopropylpiperidin-4-yl)-3-methoxybenzamide] has an IC50 of over 0.01 µM. CCN(CC)C1CCC(NC(=O)c2ccc(Nc3ncc4c(n3)N(C3CCCC3)CCC(=O)N4C)c(OC)c2)CC1 (stereo not shown) [Compound 79, 4-(9-cyclopentyl-5-methyl-6-oxo-6,7,8,9-tetrahydro-5H-pyrimido[4,5-b][1,4]diazepin-2-ylamino)-N-(4-(diethylamino)cyclohexyl) 3-methoxybenzamide] showed an IC50 of over 0.01 µM. COc1cc(C(=O)NC2CC(C)(C)N(C)C(C)(C)C2)ccc1Nc1ncc2c(n1)N(C1CCCC1)CCC(=O)N2C [Compound 80, 4-(9-cyclopentyl-5-methyl-6-oxo-6,7,8,9-tetrahydro-5H-pyrimido[4,5-b][1,4]diazepin-2-ylamino)-3-methoxy-N-(1,2,2,6,6-pentamethylpiperidin-4-yl)benzamide] showed an IC50 of 0.00316 to 0.01 µM. CCN1CCC(NC(=O)c2ccc(Nc3ncc4c(n3)N(C3CCCC3)CC(C)(C)C(=O)N4C)c(OC)c2)CC1 [Compound 87, 4-(9-cyclopentyl-5,7,7-trimethyl-6-oxo-6,7,8,9-tetrahydro-5H-pyrimido[4,5-b][1,4]diazepin-2-ylamino)-N-(1-ethylpiperidin-4-yl)-3-methoxybenzamide] gave an IC50 of 0.001 to 0.00251 µM.

Source: patent US20090291938A1 (TAKEDA PHARMACEUTICAL COMPANY LIMITED, priority 2007, published 2009)
